The record followed here is patent US20130261132A1, “CALCIUM-SENSING RECEPTOR-ACTIVE COMPOUNDS” (LEO PHARMA A/S, priority 2010, published 2013).

Structures are written as SMILES.

Data set [1] in a line: Clearance in rat hepatocytes. To be noted: hepatic extraction ratio; test compound 0.5 μM, 1×10^6 cells/mL, 37° C. Format: in vitro ADME. How it is done:
Test compounds and 4 control compounds are tested in duplicate per run. Test compound concentration is 0.5 μM and cell concentration is 1×10^6 cells/mL in the incubation. The described method is performed by the liquid handling system Tecan RSP and is based on a 96-well format.
The liver is collected from a male Spraque-Dawley rat. One liver lobe is cut off and flushed with various buffers to loosen the cells. The cell suspension is washed and centrifuged, and the cell density is adjusted to 1.2×10^6 cells/mL with Krebs-Henseleit buffer, pH 7.4, containing 0.2% bovine serum albumin (BSA). Only cell suspensions with viability above 80% are used.
The cell suspension is pre-heated (20 min) to 37° C. Test compound is added, and the mixture is incubated for 20 minutes. Incubations are run in duplicate. Samples are withdrawn at predetermined stop times and mixed with methanol containing internal standard (IS) to terminate all enzyme activity and precipitate proteins.
(§1) The percentage of organic solvent in the incubations is less than 1%. Careful inspections of reagents are performed prior to the start of any experiment to ensure all reagents are in solution.
(§2) The 96-well plates are centrifuged. Test compound depletion, using a compound specific LC/MS/MS method, is determined.
Data analysis is performed as described above in the section “Biological assay for analysis of clearance in human liver microsomes”, with the following modifications: Intrinsic clearance (CIint) (mL/min/10^6 cells) is calculated from: […]
where c is the cell concentration in 10^6 cells/mL.
The following scaling factors for rat are used for eq. 4:
a: 120 (cells/liver weight (10^6 cells/g))
d: 0.25 (body weight (kg))
Liver blood flow in rats (for eq. 5):
Apparent clearance below approximately 25 mL/min/kg rat body weight (corresponding to an extraction ratio of approx. 33%) is considered as low clearance (high metabolic stability). Apparent intrinsic clearance above approximately 165 mL/min/kg rat body weight (corresponding to an extraction ratio of approx. 75%) is considered as high clearance (low metabolic stability).

Data set [2] can be described thus: Clearance in human liver microsomes. As to conditions: hepatic extraction ratio; test compound 0.5 μM, microsomes 0.5 mg/mL, NADPH 1 mM, 37° C. Format: in vitro ADME. On the procedure:
Test compound concentration is 0.5 μM, microsome concentration is 0.5 mg/mL and NADPH concentration is 1 mM in the incubation. The described method is performed by the liquid handling system Tecan RSP and is based on a 96-well format.
Control incubations with test compound without NADPH and test compound without microsomes are conducted to investigate non-CYP mediated metabolism and stability in phosphate buffer at 37° C., respectively.
The human liver microsomal suspension in phosphate buffer is mixed with NADPH. The mixture is pre-heated (7 min) to 37° C. Test compound is added, and the mixture is incubated for 30 minutes. Incubations are run in duplicate. Samples are withdrawn at predetermined stop times and mixed with methanol containing internal standard (IS) to terminate all enzyme activity and precipitate proteins. A control without NADPH (to detect problems such as nonspecific protein binding, heat instability or non-CYP mediated metabolism) and a control without microsomes (for assessing compound stability in the absence of any active enzymes) are tested.
as §1, §2
The logarithm of the peak area ratios of test compound to internal standard (IS) versus incubation time is plotted in a graph.
The rate constant (k) (min^−1) of test compound depletion is calculated from the linear part of the curve and the half-time (t1/2) in minutes can be calculated from the rate constant (Eq. 2).
Intrinsic clearance (CIint) (mL/min/mg protein) is calculated from: […]
where c is the microsomal protein concentration in mg/mL.
Conversion to apparent clearance (CIapp) (mL/min/kg) is done by Eq. 4:
CIapp=CIint×a×b/d (Eq. 4)
where a, b and d are the scaling factors for normalizing CIint to human body weight.
a: 45 (microsomal protein/liver weight (mg/g))
b: 1500 (liver weight (g))
Hepatic clearance (CIh) (mL/min/kg) based on the well-stirred model is described as followed:
CIh=(CIapp·Q)/(CIapp+Q) (Eq. 5)
where Q is the liver blood flow in mL/min/kg (20 in humans).
Dividing hepatic clearance with liver blood flow, the hepatic extraction ratio (%) can be calculated:
Apparent clearance below approximately 10 mL/min/kg human body weight (corresponding to extraction ratio of approx. 33%) is considered as low clearance (high metabolic stability). Apparent intrinsic clearance above approximately 60 mL/min/kg human body weight (corresponding to extraction ratio of approx. 75%) is considered as high clearance (low metabolic stability).
Background: Liver microsomes are vesicles of endoplasmic reticulum, rich in cytochrome P450 enzymes.

On to `COc1cc([C@@H](C)N[C@H]2CC[C@@H](c3ccc(OCC(=O)NCCS(N)(=O)=O)cc3)C2)ccc1F` [Compound 104, 2-[4-[(1R,3S)-3-[[(1R)-1-(4-Fluoro-3-methoxy-phenyl)ethyl]-amino]-cyclopentyl]phenoxy]-N-(2-sulfamoylethyl)acetamide], for which, in data set [1], the “Clearance (% Eh) in rat hepatocytes” value was “A (A: Eh < 33%)”. In data set [2], the “Clearance (% Eh) in human liver microsomes” value was “A (A: Eh < 33%)”.

Consider `COc1cc([C@@H](C)N[C@H]2CC[C@@H](c3ccc(OCC(=O)N4CCN(S(N)(=O)=O)CC4)cc3)C2)ccc1F` [Compound 110, 4-[2-[4-[(1R,3S)-3-[[(1R)-1-(4-Fluoro-3-methoxy-phenyl)-ethyl]-amino]cyclopentyl]phenoxy]acetyl]piperazine-1-sulfonamide], for which, in data set [1], the “Clearance (% Eh) in rat hepatocytes” value is “B (B: 33% ≦ Eh ≦ 75%)”. Besides, the “Clearance (% Eh) in human liver microsomes” value in data set [2] was “B (B: 33% ≦ Eh ≦ 75%)”.

As for `COc1cc([C@@H](C)N[C@H]2CC[C@@H](c3ccc(OCC(=O)NCCNCCO)cc3)C2)ccc1F` [Compound 106, 2-[4-[(1R,3S)-3-[[(1R)-1-(4-Fluoro-3-methoxy-phenyl)ethyl]-amino]-cyclopentyl]phenoxy]-N-[2-(2-hydroxyethylamino)ethyl]acetamide], the “Clearance (% Eh) in rat hepatocytes” value in data set [1] is “B (B: 33% ≦ Eh ≦ 75%)”. Also, the “Clearance (% Eh) in human liver microsomes” value in data set [2] was “A (A: Eh < 33%)”.

With `COc1cc([C@@H](C)N[C@H]2CC[C@@H](c3ccc(OCC(=O)N4CCN(C(C)=O)CC4)cc3)C2)ccc1F` [Compound 109, 1-(4-Acetylpiperazin-1-yl)-2-[4-[(1R,3S)-3-[[(1R)-1-(4-fluoro-3-methoxy-phenyl)ethyl]amino]cyclopentyl]phenoxy]ethanone], the “Clearance (% Eh) in rat hepatocytes” value in data set [1] was “B (B: 33% ≦ Eh ≦ 75%)”. The “Clearance (% Eh) in human liver microsomes” value in data set [2] is “A (A: Eh < 33%)”.

Turning to `COc1cc([C@@H](C)N[C@H]2CC[C@@H](c3ccc(OCC(=O)N4CCNCC4)cc3)C2)ccc1F` [Compound 103, 2-[4-[(1R,3S)-3-[[(1R)-1-(4-Fluoro-3-methoxy-phenyl)ethyl]-amino]-cyclopentyl]phenoxy]-1-piperazin-1-yl-ethanone], the “Clearance (% Eh) in rat hepatocytes” value in data set [1] is “B (B: 33% ≦ Eh ≦ 75%)”. The “Clearance (% Eh) in human liver microsomes” value in data set [2] is on record as “A (A: Eh < 33%)”.

For the compound `C[C@@H](N[C@H]1CC[C@@H](c2ccc(OCC(=O)NC3CCNCC3)cc2)C1)c1cccc2ccccc12` [Compound 112, 2-[4-[(1R,3S)-3-[[(1R)-1-(1-Naphthyl)ethyl]amino]cyclopentyl]-phenoxy]-N-(4-piperidyl)acetamide], the “Clearance (% Eh) in rat hepatocytes” value in data set [1] was “B (B: 33% ≦ Eh ≦ 75%)”. In addition, the “Clearance (% Eh) in human liver microsomes” value in data set [2] is “A (A: Eh < 33%)”.

For the compound `COc1cc([C@@H](C)N[C@H]2CC[C@@H](c3ccc(OCC(=O)NCCNS(C)(=O)=O)cc3)C2)ccc1F` [Compound 108, 2-[4-[(1R,3S)-3-[[(1R)-1-(4-Fluoro-3-methoxy-phenyl)ethyl]-amino]-cyclopentyl]phenoxy]-N-[2-(methanesulfonamido)ethyl]acetamide], the “Clearance (% Eh) in rat hepatocytes” value in data set [1] was “B (B: 33% ≦ Eh ≦ 75%)”. The “Clearance (% Eh) in human liver microsomes” value in data set [2] is on record as “A (A: Eh < 33%)”.
